Tested on: C. reinhardtii
Experiment: Growth in medium with 1 μM Rapamycin (time needed for division)
Type: cell-based, Chlamydomonas reinhardtii
Details: saturating concentration of Rapamycin (1 μM)
Excerpt: FIGS. 3A-3D illustrates the growth of cht7—expressing cells affected by different treatments. FIG. 3A graphically illustrates growth of cht7 and parental (dw15) lines on nitrogen-replete medium (optical density (OD) at 550 nm). Doubling times are given in parentheses. The grey bar indicates the OD at which nitrogen-replete samples were taken for all experiments in this study. Averages of three biological replicates are given with standard deviations for all points being smaller than 3%. FIG. 3B graphically illustrates growth of dw15, cht7, and four independent complementation lines (C1-4) during nitrogen deprivation (−N) followed by nitrogen resupply (+N) measured at the times indicted. Insert, cultures at 24 h following nitrogen resupply. FIG. 3C graphically illustrates growth during phosphate deprivation (−P) followed by phosphate resupply (+P). FIG. 3D graphically illustrates growth in the medium with 1 μM Rapamycin (+R) followed by the removal of Rapamycin (−R). Cultures were diluted twice (a) with medium containing 1 μM Rapamycin to avoid reaching stationary phase.
Growth under different nitrogen and phosphate regimes and following Rapamycin treatment, plating and viability assays, as well as lipid assays were performed using established methods.
Growth of the cht7 mutant was normal in nitrogen-replete medium under standard conditions (FIG. 3A). […]

## CO[C@H]1C[C@@H]2CC[C@@H](C)[C@@](O)(O2)C(=O)C(=O)N2CCCC[C@H]2C(=O)O[C@H]([C@H](C)C[C@@H]2CC[C@@H](O)[C@H](OC)C2)CC(=O)[C@H](C)/C=C(\C)[C@@H](O)[C@@H](OC)C(=O)[C@H](C)C[C@H](C)/C=C/C=C/C=C/1C [Rapamycin]
cht7 mutant
  time needed for division: 30.1 h
Parental line (dw15)
  time needed for division: 23.9 h

— US20160201075A1, “REGULATOR OF ALGAL LIPID METABOLISM AND CELLULAR […] ITS APPLICATIONS” (Board of Trustees of Michigan State University, priority 2014, published 2016)
